Patent US20100137346A1, “DESFE[…] ACTINIDE DEC[…]” (priority 2006, published 2010)
Where two headings read alike, the source gives them in different places.

How the values were obtained:
[1] = cited from earlier work
[2] = rats, same dose; cited from earlier work
[3] = in vivo; cited from earlier work
[4] = Chelator-induced uranium excretion (urine + bile, 24 h) in bile duct-cannulated rat model; format: in vivo
Experimental: (§1) Desferrithiocin Analogue Induced Excretion of Uranium. In order to compare results with previous chelator-induced iron excretion data, the uranium clearance studies were carried out in a bile duct-cannulated rat model. The animals were given uranyl acetate dihydrate SC at a dose of 5 mg/kg (the actual dose of uranium is 2.8 mg/kg). Bile and urine samples were collected for 24 hours after dosing. Kidneys were removed from selected animals and tissue uranium concentration measured. At least three animals were utilized in each experimental group. Data from two separate control studies (uranyl acetate/ no chelator) have now been combined for a total of 14 control animals. All uranium concentrations were measured using ICPMS. The data are reported as the total quantity of uranium excreted [urine +bile]; the mode of excretion [urine/bile] is also given. In addition the percentage of the administered dose of uranium cleared and chelator-induced uranium excretion vs the controls is also given. Four positive controls were evaluated: DTPA (13, Table 1) given as its trisodium calcium salt, DFO (14), N,N′-bis(2hydroxybenzyl)ethylenediamine-N,N′-diacetic acid, monosodium salt (NaHBED, 15) and the hydroxypyridone CP94 (16) shown to bind uranium [Pashalidis, et al., Effective complex formation in the interaction of 1,2-dimethyl-3-hydroxypyrid-4-one (Deferiprone or L1) with uranium(VI), Journal of Radioanalytical and Nuclear Chemistry 1999; 242:181-184.] The total metal cleared after 24 h in control rats was 10% of the administered dose. When DTPA, 13, was given IP or PO at 300 μmol/kg immediately after uranium, the excretion was 17% and 8% of the administered dose respectively (p>0.05). However, when the drug was given IP at a dose of 600 μmol/kg immediately post-metal, the uranium excretion was significant, 20% (p<0.005). This is consistent with previously published data using a similar animal model.[Domingo, et al., Comparative effects of the chelators sodium 4,5-dihydroxybenzene-1,3-disulfonate (Tiron) and diethylenetriaminepentaacetic acid (DTPA) on acute uranium nephrotoxicity in rats, Toxicology 1997; 118:49-59] DFO (14) and CP94 (16) given IP immediately post uranyl acetate were ineffective.
Desferrithiocin Analogue-Induced Excretion of Uranium. In order to compare results with previous chelator-induced iron excretion data, the uranium clearance studies were carried out in a bile duct-cannulated rat model. The animals were given uranyl acetate dihydrate SC at a dose of 5 mg/kg (the actual dose of uranium is 2.8 mg/kg). Bile and urine samples were collected for 24 hours after dosing. Kidneys were removed from selected animals and tissue uranium concentration measured. At least three animals were utilized in each experimental group. Data from two separate control studies (uranyl acetate/ no chelator) are combined for a total of 14 control animals. All uranium concentrations were measured using ICPMS. The data are reported as the total quantity of uranium excreted [urine +bile]; the mode of excretion [urine/bile] is also given. In addition the percentage of the administered dose of uranium cleared and chelator-induced uranium excretion vs the controls is also given. Four positive controls were evaluated: DTPA (1, Table 1) given as its trisodium calcium salt, DFO (2), N,N -bis(2-hydroxybenzyl)ethylenediamine-N,N-diacetic acid, monosodium salt (NaHBED, 3) and the hydroxypyridone CP94 (4) shown to bind uranium. The total metal cleared after 24 h in control rats was 10% of the administered dose. When DTPA, 1, was given IP or PO at 300 μmol/kg immediately after uranium, the excretion was 17% and 8% of the administered dose respectively (p>0.05). However, when the drug was given IP at a dose of 600 μmol/kg immediately post metal, the uranium excretion was significant, 20% (p<0.005). This is consistent with previously published data using a similar animal model.^2 DFO (2) and CP94 (4) given IP immediately post uranyl acetate were ineffective.

[5] = Renal uranium content in uranyl acetate-treated bile duct-cannulated rats (FIG. 3); format: in vivo, rat
Experimental: as §1
The most promising analogue in the (S)-2-(2,4-dihydroxyphenyl)-4,5-dihydro-4-thiazolinecarboxylic series is the methoxy analogue (S)-4′-(CH3O)-DADMDFT (11). Given IP at 300 μmol/kg 0.5 h before uranyl acetate or immediately thereafter, nearly 30% of the metal was cleared (Table 1). This was also true if the drug was given IP 0.5 or 2 h post metal. The drug retains some efficacy given 4 h post uranium; 16% of the metal is excreted (p<0.006). When the chelator was given SC immediately post uranium, 40% of the administered metal was cleared. The increased excretion is probably associated with a slower absorption of the ligand. The data from rodents given the drug orally is even more encouraging (Table 1). […] The most profound data are associated with uranium decorporation from the kidneys (FIG. 3). When DTPA is given IP or PO at a dose of 300 μmol/kg immediately post metal, there is no reduction in renal uranium relative to controls. However, (S)-4′-(CH3O)-DADMDFT (11) given orally at a dose of 300 μmol/kg immediately post metal reduces renal uranium by 37% (p<0.005).
There is a small (16%) reduction when the drug is given PO at a dose of 300 μmol/kg 2 h post uranium. However, when 11 is given PO at a dose of 600 μmol/kg 0.5 h post metal, the renal uranium content is reduced by 76% (p<0.001). When given PO at the same dose 1 h post uranium exposure, the reduction is still significant, 42% (p<0.006). In all sets of ligands, the most lipophilic chelator is always the most toxic. […] On the basis of this finding, a less lipophilic, more water-soluble ligand than 12 was assembled, (S)-4′-(HO)-DADFT-PE (18, Table 1), a polyether analogue.

[6] = iron-overloaded C. apella primate

O=C(O)[C@H]1CSC(c2ncccc2O)=N1 [Compound 2, (S)-4,5-dihydro-2-(3-hydroxy-2-pyridinyl)-4-thiazolecarboxylic acid]
ICE [1, 6]: 4.8%

C[C@]1(C(=O)O)CSC(c2ccccc2O)=N1 [Compound 3, (S)-4,5-dihydro-2-(2-hydroxyphenyl)-4-methyl-4-thiazolecarboxylic acid]
outcome of planned 10-day dosing regimen [2]: dead by day 5
toxicity, in words [3]: Severe gastrointestinal (GI) toxicity
ICE [1, 6]: 13%

O=C(O)[C@H]1CSC(c2ccccc2O)=N1 [Compound 4, (S)-4,5-dihydro-2-(2-hydroxyphenyl)-4-thiazolecarboxylic acid]
outcome of planned 10-day dosing regimen [2]: dead by day 5
toxicity, in words [3]: Severe gastrointestinal (GI) toxicity
ICE ([1]; administered PO at a dose of 150 μmol/kg): 12.4%
ICE [1, 6]: 12%

C[C@]1(C(=O)O)CSC(c2ccc(O)cc2O)=N1 [Compound 10, (S)-2-(2,4-dihydroxyphenyl)-4,5-dihydro-4-methyl-4-thiazolecarboxylic acid]
% of Administered Dose Cleared ([4]; 300 μmol/kg IP Immediate): 19%
outcome of planned 10-day dosing regimen [2]: did not display any frank toxicity
iron-clearing activity, in words ([1]; C. apella model): compatible with iron clearance
ICE ([1]; given orally to the primates at an iron binding equivalent dose): 13.4±5.8%

O=C(O)CN(CCN(CC(=O)O)CC(=O)O)CCN(CC(=O)O)CC(=O)O [DTPA, diethylenetriaminepentaacetic acid, reference compound]
% of Administered Dose Cleared ([4]; 300 μmol/kg IP Immediate): 17%
% of Administered Dose Cleared ([4]; 300 μmol/kg PO Immediate): 8%
% of Administered Dose Cleared ([4]; 600 μmol/kg IP Immediate): 20%
reduction in renal uranium relative to controls ([5]; IP 300 μmol/kg immediately post metal): no reduction
reduction in renal uranium relative to controls ([5]; PO 300 μmol/kg immediately post metal): no reduction

COc1ccc(C2=N[C@@H](C(=O)O)CS2)c(O)c1 [drawing 12]
% of Administered Dose Cleared ([4]; 300 μmol/kg IP 0.5 h Post): 33%
Chelator-Induced U Excretion/Control ([4]; 300 μmol/kg IP 0.5 h Post): 3.3
Uranium Excretion ([4]; 300 μmol/kg IP 0.5 h Post): 917 ± 177 µg/kg
Uranium Excretion [urine/bite] ([4]; 300 μmol/kg IP 0.5 h Post): [16/84]
% of Administered Dose Cleared ([4]; 300 μmol/kg IP 0.5 h Pre): 29%
Chelator-Induced U Excretion/Control ([4]; 300 μmol/kg IP 0.5 h Pre): 2.9
Uranium Excretion ([4]; 300 μmol/kg IP 0.5 h Pre): 815 ± 211 µg/kg
Uranium Excretion [urine/bite] ([4]; 300 μmol/kg IP 0.5 h Pre): 48/52
% of Administered Dose Cleared ([4]; 300 μmol/kg IP 2 h Post): 30%
Chelator-Induced U Excretion/Control ([4]; 300 μmol/kg IP 2 h Post): 3.0
Uranium Excretion ([4]; 300 μmol/kg IP 2 h Post): 847 ± 335 µg/kg
Uranium Excretion [urine/bite] ([4]; 300 μmol/kg IP 2 h Post): [46/54]
% of Administered Dose Cleared ([4]; 300 μmol/kg IP 4 h Post): 16%
Chelator-Induced U Excretion/Control ([4]; 300 μmol/kg IP 4 h Post): 1.6
Uranium Excretion ([4]; 300 μmol/kg IP 4 h Post): 444 ± 119 µg/kg
Uranium Excretion [urine/bite] ([4]; 300 μmol/kg IP 4 h Post): [66/34]
% of Administered Dose Cleared ([4]; 300 μmol/kg IP Immediate): 30%
Chelator-Induced U Excretion/Control ([4]; 300 μmol/kg IP Immediate): 3.0
Uranium Excretion ([4]; 300 μmol/kg IP Immediate): 838 ± 166 µg/kg
Uranium Excretion [urine/bite] ([4]; 300 μmol/kg IP Immediate): [64/36]
% of Administered Dose Cleared ([4]; 300 μmol/kg PO 2 h Post): 18%
Chelator-Induced U Excretion/Control ([4]; 300 μmol/kg PO 2 h Post): 1.8
Uranium Excretion ([4]; 300 μmol/kg PO 2 h Post): 507 ± 182 µg/kg
Uranium Excretion [urine/bite] ([4]; 300 μmol/kg PO 2 h Post): [53/47]
% of Administered Dose Cleared ([4]; 300 μmol/kg PO Immediate): 23%
Chelator-Induced U Excretion/Control ([4]; 300 μmol/kg PO Immediate): 2.3
Uranium Excretion ([4]; 300 μmol/kg PO Immediate): 642 ± 101 µg/kg
Uranium Excretion [urine/bite] ([4]; 300 μmol/kg PO Immediate): [43/57]
% of Administered Dose Cleared ([4]; 300 μmol/kg SC Immediate): 40%
Chelator-Induced U Excretion/Control ([4]; 300 μmol/kg SC Immediate): 4.0
Uranium Excretion ([4]; 300 μmol/kg SC Immediate): 1130 ± 245 µg/kg
Uranium Excretion [urine/bite] ([4]; 300 μmol/kg SC Immediate): [13/87]
% of Administered Dose Cleared ([4]; 600 μmol/kg PO 0.5 h Post): 25%
Chelator-Induced U Excretion/Control ([4]; 600 μmol/kg PO 0.5 h Post): 2.5
Uranium Excretion ([4]; 600 μmol/kg PO 0.5 h Post): 698 ± 166 µg/kg
Uranium Excretion [urine/bite] ([4]; 600 μmol/kg PO 0.5 h Post): [24/76]
% of Administered Dose Cleared ([4]; 600 μmol/kg PO 1 h Post): 26%
Chelator-Induced U Excretion/Control ([4]; 600 μmol/kg PO 1 h Post): 2.6
Uranium Excretion ([4]; 600 μmol/kg PO 1 h Post): 723 ± 128 µg/kg
Uranium Excretion [urine/bite] ([4]; 600 μmol/kg PO 1 h Post): [28/72]

C[C@@]1(C(=O)O)CSC(c2ccc(O)cc2O)=N1 [drawing 13]
% of Administered Dose Cleared ([4]; 300 μmol/kg IP Immediate): 19%
